Source: PubChem BioAssay AID434987 (Southern Research Specialized Biocontainment Screening …, 2010)
The source made the active and inactive calls. No rule for the calls is given here.

System: M. tuberculosis H37Rv growth inhibition with meropenem
Test: dose response, H37Rv, with and without meropenem (AID 434987);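 also: growth over 7 days at 37 °C before Alamar Blue read on day 9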
[1] = M. tuberculosis H37Rv growth inhibition, measured here: IC50 without meropenem
[2] = M. tuberculosis H37Rv growth inhibition, measured here: IC90 without meropenem
[3] = measured here: IC90 with meropenem

SMILES | IC50 | IC50 [1] [µM] | IC90 [2] [µM] | IC90 [3] [µM]
CCOC(=O)COc1ccc2nsnc2c1 | 23.5 µM (inactive) | 27 | > 100 | 26
CCCCCC(=O)Nc1cccc(C2=NOC3(C2)C[C@@H](C(N)=O)N(C(=O)CC(c2ccccc2)c2ccccc2)C3)c1 (stereo partly specified) | 51.6 µM (inactive) | > 100 | > 100 | > 100
CCCCCn1c(=O)c(C(=O)Nc2cnccn2)c(O)c2ccccc21 | 10.8 µM (inactive) | 13.7 | 16.4 | 13.8
Cc1cc(C(=O)Nc2nnc(-c3ccccc3)s2)no1 | 45.1 µM (inactive) | 48.4 | > 100 | > 100
Cc1nc(SCC(=O)Nc2ccc(F)cc2)c(C#N)c(C)c1CC(=O)c1ccc(Br)cc1 | > 100 µM (inactive) | > 100 | > 100 | > 100
CNc1ccccc1NC(=O)C1CCCN1C(=O)OCc1ccccc1 (stereo unspecified) | > 100 µM (inactive) | > 100 | > 100 | > 100
Cc1cc(C)c2oc(-c3ccc(Cl)c(NC(=O)c4ccc(C#N)cc4F)c3)nc2c1 | > 100 µM (inactive) | > 100 | > 100 | > 100
CSc1ncc(Cl)c(C(=O)Nc2cccc3ccccc23)n1 | 8.49 µM | 43.5 | > 100 | > 100
CCOC(=O)c1nn(-c2ccccc2)c(C#N)c1NC(=O)c1nn(CC)cc1Br | > 100 µM (inactive) | > 100 | > 100 | > 100
O=c1[nH]c(/C=C/c2cccc(Br)c2)nc2ccccc12 | > 100 µM (inactive) | > 100 | > 100 | > 100
Cc1ccc(OC(=O)COc2ccccc2)c(-n2nc3ccccc3n2)c1 | > 100 µM (inactive) | > 100 | > 100 | > 100
CCCC(=O)Nc1ccc(NC(=S)NC(=O)c2cccs2)cc1 | > 100 µM (inactive) | > 100 | > 100 | > 100
CCOC(=O)CNC(=O)/C(=C\c1ccc(F)cc1)NC(=O)c1ccccc1 | 19.1 µM | 55.5 | > 100 | 35.1
CCOC(=O)c1ccccc1NC(=O)C1COc2ccccc2O1 (stereo unspecified) | 12.1 µM | 36.2 | > 100 | > 100
Cc1ccc(C)c(NC(=O)C(Sc2nc3ccccc3c(=O)n2CC(C)C)c2ccccc2)c1 (stereo unspecified) | 58.8 µM (inactive) | > 100 | > 100 | > 100
CN1c2ccccc2C(=O)NC1c1ccc([N+](=O)[O-])s1 (stereo unspecified) | 3.09 µM | 20.7 | 38.4 | 33.3
CCN(CC)CCCNC(=O)c1c(O)c2ccccc2n(Cc2ccccc2)c1=O | 12.6 µM (inactive) | 23.2 | 32.7 | 13.8
CC(=O)NC(=S)Nc1ccc(NC(=O)c2cccs2)cc1 | 48.7 µM (inactive) | > 100 | > 100 | > 100
Cc1ccc(C(=O)N/C(=C\c2ccc(-c3ccc(Cl)cc3)o2)C(=O)NCCCN(C)C)cc1 | 22.4 µM (inactive) | 25.2 | 28.3 | 23.7
Cc1ccc(NC(=O)CSc2n[nH]c(-c3ccco3)n2)cc1 | > 100 µM (inactive) | > 100 | > 100 | > 100
COc1ccnc(CS(=O)c2nc3cc(OC(F)F)ccc3[nH]2)c1OC (stereo unspecified) | > 100 µM (inactive) | > 100 | > 100 | > 100
CCOc1ccc2cc(S(=O)(=O)N3CCCCC3)ccc2c1 | > 100 µM (inactive) | > 100 | > 100 | > 100
Cc1cccc(N2CCN(CC3CCCCC3)CC2)c1C | 48.5 µM (inactive) | 90.5 | > 100 | 53.2
CCOC(=O)c1c(NC(=O)COC(=O)c2ncc(Cl)c(Cl)c2Cl)sc(C(=O)N(C)C)c1C | 24.8 µM (inactive) | 47.3 | 53.4 | 27.7
CCC(CC)Nc1ccc(C(CC(N)=O)NC(=O)c2ccccc2)cc1[N+](=O)[O-] (stereo unspecified) | > 100 µM (inactive) | > 100 | > 100 | > 100
COc1ccc([C@H]2CC(=O)C=C(/C=C/c3ccccc3)C2)cc1OC | > 100 µM (inactive) | > 100 | > 100 | > 100
O=C1CS/C(=N/N=C2C3CC4CC(C3)CC2C4)N1 | 11.7 µM (inactive) | 23.5 | 32.5 | 13.8
CCC(=O)NC(=S)Nc1ccc(-c2nc3ccccc3s2)cc1 | > 100 µM (inactive) | > 100 | > 100 | > 100
Cc1cc(C=C2C(=O)NC(=S)NC2=O)c(C)n1-c1ccc2c(c1)OCO2 | 12.7 µM (inactive) | 24.3 | 25.3 | 14.5
